Laboratory results as given in article PMC9841533, “Microtubule-Stabilizing 1,2,4-Triazolo[1,5-a]pyrimidines as Candidate Therapeutics for Neurodegenerative Disease: Matched Molecular Pair Analyses and Computational Studies Reveal New Structure–Activity Insights” (Journal of Medicinal Chemistry, 2022).
Read-outs that look alike come from different tables or passages of the source.

What was measured:
[1] = Resazurin cell viability assay, HeLa; format: cell-based; conditions: human, HeLa cells, three biological replicates, read-out: HeLa CC50 ± SD
Protocol: (§1) Cell Culture. QBI293 and HeLa cells were cultured in DMEM supplemented with 10% heat-
(§2) inactivated FBS and 1% penicillin-streptomycin. Cells were grown in T175 cell culture flasks maintained
(§3) at 37 ℃ in 5% CO2 and sub-c ultured when at 60-8 0% cell confluence.
(§4) Resazurin Cell Viability Assay. Cytotoxicity in QBI293 and HeLa cells was measured using the
(§5) resazurin cell viability assay.1 Test compounds were serially diluted in DMSO and added to 96-well
(§6) polystyrene assay plates to give final assay concentrations ranging from 100 nM to 4000 nM (1 µL; 1%
(§7) total DMSO). Fresh medium was added to the assay plate (49 µL/well). QBI293 or HeLa cells were
(§8) cells/well. Assay plates were incubated at 37 °C and 5% CO2 for 48 h, followed by addition of 20 µL 0.5
(§9) mM resazurin (Alfa Aesar, Cat. B21187) in PBS to each well. Assay plates were incubated in the dark for
(§10) (1 picture or pasted object on this page, not shown here)
(§11) 4 h at 37 °C. Fluorescence was measured at 531 nm and 595 nm excitation and emission wavelengths,
(§12) respectively, using a 2104 EnVision® multilabel plate reader. The viability of each well was normalized to
(§13) positive and negative controls in each assay plate. Dose-response curves were generated and CC50 values
(§14) calculated with GraphPad Prism, version 9.3 (San Diego, CA) using a sigmoidal four parameter logistic
(§15) curve. The means ± standard deviations from three biological replicates are shown.
(§16) (1) O'Brien, J.; Wilson, I.; Orton, T.; Pognan, F. Investigation of the Alamar Blue (resazurin) fluorescent
(§17) dye for the assessment of mammalian cell cytotoxicity. Eur. J. Biochem. 2000, 267 (17), 5421-5426.

[2] = Resazurin cell viability assay, QBI293; format: cell-based; conditions: human, QBI293 cells, three biological replicates, read-out: QBI293 CC50 ± SD
Protocol: as §1, §2, §3, §4, §5, §6, §7, §8, §9, §10, §11, §12, §13, §14, §15, §16, §17

[3] = system: AcTub levels in OA-treated primary mouse cortical neurons; test: Okadaic acid (OA) assay, AcTub ELISA in primary mouse cortical neurons; format: cell-based; conditions: OA 15 nM, 8 h, compound 1 and 10 μM
Protocol: To further evaluate the activity of Class I alkyne derivatives and hybrid compounds, several compounds were also assessed for their ability to compensate for MT deficits in primary neuron cultures that were treated with the phosphatase inhibitor, okadaic acid (OA). As previously described,[11] treatment of rodent neurons with OA results in tau hyperphosphorylation and MT collapse that presumably results, at least in part, from tau disengagement from MTs. Co-treatment of neurons with Class I TPDs, such as 1, along with OA prevents this MT collapse, with a resulting normalization of MT structure and neuronal processes which can be observed upon visual inspection of the neurons or through an assessment of neuronal AcTub levels, while Class II TPDs are generally unable to provide meaningful compensation of MT deficits, especially when tested at higher (i.e., 10 μM) compound concentration.[11],[12]
Figure 4 ELISA determination of AcTub levels in homogenates from primary rat cortical neurons treated with either vehicle, or OA (15 nM) in the presence of vehicle or TPD 1, 8, 9 (A); and primary mouse cortical neurons treated with vehicle, or OA (15 nM) in the presence of vehicle or TPD 1, 24, 45, 46, 53, 54 (B). Error bars represent SEM, with ***, p < 0.001 relative to vehicle treatment in the absence of OA as determined by one-way ANOVA.
Compound-induced changes in acetylated-tubulin and α-tubulin in QBI293 cells or primary mouse or rat neurons were as previously described.[11],[12] For compound testing, QBI293 cells were plated at a density of 2 × 10^5 cells/well in 12-well plates. The plated cells were incubated overnight, after which the medium was aspirated and fresh medium containing vehicle (0.25–0.3% DMSO) or test compound was added. Test compounds were prepared as 4–20 mM stock solutions in 100% DMSO, and these were diluted in culture medium prior to addition to the QBI293 cells. After 4 h incubation, whole-cell extracts were prepared from the QBI293 cells as described[11] and the supernatant fraction from each sample was assessed for protein content by bicinchoninic acid (BCA) assay. The amount of acetyl-tubulin (AcTub) and α-tubulin (αTub) within the cell extract samples was quantified using specific enzyme-linked immunosorbent assays (ELISA), as previously described.[11] Acetyl-tubulin levels were determined in a similar manner in rat or mouse cortical neuron cultures in which embryonic dissociated cortical neurons were plated at 3 × 10^5 cells/well in poly-D-lysine-coated 12-well plates, essentially as previously described.[11] The neurons were allowed to grow for 10 days before they were treated for 8 h with 15 nM okadaic acid in the presence or absence of test compound prepared as described above, or vehicle (0.25% DMSO). Culture homogenates were prepared for the determination of AcTub levels by ELISA as previously described.[11]
VehicleVehicleVehicleVehicle25 (1 µM)
Figure S2. Assessment of AcTub levels in primary mouse cortical neurons treated with vehicle,
as §10

[4] = system: total α-tubulin (α-Tub) levels in QBI293 cells; test: QBI293 cell assay: total α-tubulin ELISA; format: cell-based
In short: (§18)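 AcTub and α-Tub were quantified by ELISA in whole-cell extracts normalized by BCA protein and expressed relative to vehicle. AcTub changes were also scaled to a 100 nM reference stabilizer control.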

[5] = system: acetylated α-tubulin (AcTub) levels in QBI293 cells; test: QBI293 cell assay of MT stabilization: acetylated α-tubulin ELISA; format: cell-based
In short: as §18

[6] = system: acetylated α-tubulin (AcTub) levels in QBI293 cells; set-up: method as in PMID 26980057, PMID 33411523; conditions: 4 h incubation, reported in previous studies, cited from earlier work
[7] = system: total α-tubulin (α-Tub) levels in QBI293 cells; set-up: method as in PMID 26980057, PMID 33411523; conditions: 4 h incubation, 10 μM, reported in previous studies; cited from earlier work
[8] = 4 h, 1 uM compound, read-out: AlfaTub (1uM)
[9] = 4 h, 10 uM compound, read-out: AlfaTub (10 uM)
[10] = 4 h incubation, 1 μM, read-out: α-Tub 1 μM, fold-change compared to vehicle (DMSO)-treated cells
[11] = 4 h incubation, 10 μM, read-out: α-Tub 10 μM, fold-change compared to vehicle (DMSO)-treated cells
[12] = 4 h, 1 uM compound, read-out: AcTub (1uM)
[13] = 4 h, 10 uM compound, read-out: AcTub (10 uM)
[14] = 4 h incubation, 1 μM, read-out: AcTub 1 μM, fold-change compared to vehicle (DMSO)-treated cells
[15] = 4 h incubation, 10 μM, read-out: AcTub 10 μM, fold-change compared to vehicle (DMSO)-treated cells

Row | SMILES | CC50 at 48 h [1] | CC50 at 48 h [2] | prevention/correction of OA-induced MT collapse (AcTub levels) [3] | fold induction at 1 µM [4, 8] | fold induction at 10 µM [4, 9] | fold induction at 1 µM [4, 10] | fold induction at 10 µM [4, 11] | AcTub (1 uM - normalized) ([5]; 1 uM compound) | AcTub (10 uM - normalized) ([5]; 10 uM compound) | fold induction at 1 µM [5, 12] | fold induction at 10 µM [5, 13] | AcTub 1 μM, fold-change compared to positive control compound 5 (100 nM) (in parentheses) ([5]; 4 h incubation, 1 μM) | fold induction at 1 µM [5, 14] | AcTub 10 μM, fold-change compared to positive control compound 5 (100 nM) (in parentheses) ([5]; 4 h incubation, 10 μM) | fold induction at 10 µM [5, 15] | AcTub 10 μM, fold-change compared to vehicle (DMSO)-treated cells ([6]; 10 μM) | α-Tub 10 μM, fold-change compared to vehicle (DMSO)-treated cells [7] | AcTub 1 μM, fold-change compared to positive control compound 5 (100 nM) (in parentheses) ([6]; 1 μM) | AcTub 1 μM, fold-change compared to vehicle (DMSO)-treated cells ([6]; 1 μM) | AcTub 10 μM, fold-change compared to positive control compound 5 (100 nM) (in parentheses) ([6]; 10 μM)
1 | CC[C@]1(O)C[C@@H]2CN(CCc3c([nH]c4ccccc34)[C@@](C(=O)OC)(c3cc4c(cc3OC)N(C)[C@H]3[C@@](O)(C(=O)OC)[C@H](OC(C)=O)[C@]5(CC)C=CCN6CC[C@]43[C@@H]65)C2)C1 [Vinblastine, reference compound] | 2.11 ± 0.1 nM | 3.23 ± 0.67 nM |  |  |  |  |  |  |  |  |  |  |  |  |  |  |  |  |  | 
2 | C[C@@H](Nc1c(-c2c(F)cc(OCCCO)cc2F)c(Cl)nc2ncnn12)C(C)(C)C [Compound 25, (R)-3-(4-(5-Chloro-7-((3,3-dimethylbutan-2-yl)amino)-[1,2,4]triazolo[1,5-a]pyrimidin-6-yl)-3,5-difluorophenoxy)propan-1-ol] |  |  | lesser recovery of OA-induced MT collapse | 0.96 | 1.06 | 0.96 ± 0.03 | 1.06 ± 0.03 | 1.01 | 0.98 | 9.17 | 8.92 | 1.01 fold-change | 9.17 ± 0.13 | 0.98 fold-change | 8.92 ± 0.36 |  |  |  |  | 
3 | C[C@@H](Nc1c(-c2c(F)cc(C#CCCCO)cc2F)c(Cl)nc2ncnn12)C(C)(C)C [Compound 54, (R)-5-(4-(5-Chloro-7-((3,3-dimethylbutan-2-yl)amino)-[1,2,4]triazolo[1,5-a]pyrimidin-6-yl)-3,5-difluorophenyl)pent-4-yn-1-ol] |  |  | can prevent the OA-induced MT collapse | 1.19 | 1.14 | 1.19 ± 0.11 | 1.14 ± 0.077 | 0.74 | 0.87 | 4.78 | 5.59 | 0.74 fold-change | 4.78 ± 1 | 0.87 fold-change | 5.59 ± 0.26 |  |  |  |  | 
4 | C[C@H](Nc1c(-c2c(F)cc(OCCCO)cc2F)c(Cl)nc2ncnn12)C(F)(F)F [Compound 64] | 189 ± 19 nM | 226 ± 17 nM |  | 0.73 | 0.37 |  |  | 1.24 | 0.19 | 6.76 | 1.03 |  |  |  |  | 1.03 ± 0.02 fold-change | 0.37 ± 0.02 fold-change |  |  | 
5 | CC(C)[C@@H](C)Nc1c(-c2c(F)cc(C#CCCO)cc2F)c(Cl)nc2ncnn12 [Compound 45, (R)-4-(4-(5-Chloro-7-((3-methylbutan-2-yl)amino)-[1,2,4]triazolo[1,5-a]pyrimidin-6-yl)-3,5-difluorophenyl)but-3-yn-1-ol] |  |  | can prevent the OA-induced MT collapse | 1 | 0.95 | 1 ± 0.03 | 0.95 ± 0.03 | 0.48 | 0.82 | 5.9 | 10.1 | 0.48 fold-change | 5.9 ± 0.32 | 0.82 fold-change | 10.1 ± 0.71 |  |  |  |  | 
6 | CC(=O)O[C@H]1C(=O)[C@@]2(C)[C@H]([C@H](OC(=O)c3ccccc3)[C@]3(O)C[C@H](OC(=O)[C@H](O)[C@@H](NC(=O)c4ccccc4)c4ccccc4)C(C)=C1C3(C)C)[C@]1(OC(C)=O)CO[C@@H]1C[C@@H]2O [Taxol, reference compound] | 1.53 ± 0.26 nM | 1.29 ± 0.16 nM |  |  |  |  |  |  |  |  |  |  |  |  |  |  |  |  |  | 
7 | CC(C)[C@@H](C)Nc1c(-c2c(F)cc(C#CCCCO)cc2F)c(Cl)nc2ncnn12 [Compound 46, (R)-5-(4-(5-Chloro-7-((3-methylbutan-2-yl)amino)-[1,2,4]triazolo[1,5-a]pyrimidin-6-yl)-3,5-difluorophenyl)pent-4-yn-1-ol] |  |  | can prevent the OA-induced MT collapse | 1 | 1.37 | 1 ± 0.08 | 1.37 ± 0.05 | 0.40 | 0.68 | 2.59 | 4.43 | 0.40 fold-change | 2.59 ± 0.16 | 0.68 fold-change | 4.43 ± 0.56 |  |  |  |  | 
8 | CN(C)CCCOc1cc(F)c(-c2c(Cl)nc3ncnn3c2NCC2(C)N=N2)c(F)c1 [Compound 65] |  |  |  | 0.36 | 0.19 |  |  | 0.81 | 0.02 | 10.5 | 0.29 |  |  |  |  |  | 0.19 ± 0.02 fold-change | 0.81 fold-change | 10.5 ± 0.4 fold-change | 0.02 fold-change
